Assay [1] has as its target T1, TIPE3 (TNFAIP8L3) (Mus musculus, UniProt Q3TBL6).
T1 sequence (Q3TBL6 1-204): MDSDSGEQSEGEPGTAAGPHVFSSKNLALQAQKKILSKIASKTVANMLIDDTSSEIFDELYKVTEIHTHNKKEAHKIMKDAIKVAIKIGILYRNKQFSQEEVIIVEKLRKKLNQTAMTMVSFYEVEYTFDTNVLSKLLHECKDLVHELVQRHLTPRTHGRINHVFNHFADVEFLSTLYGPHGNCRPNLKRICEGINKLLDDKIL
As to the kind of experiment: vesicle sedimentation assay. Format: binding. As to conditions: 20 µM protein; 1000 µM vesicles of 10% lipid + 90% PC.

Assay [2] addresses T2, TIPE3 (TNFAIP8L3) (Mus musculus, UniProt Q3TBL6, K33Q/K34Q/K38Q/K42Q).
T2 sequence (Q3TBL6 1-204 K33Q/K34Q/K38Q/K42Q): T1 sequence (Q3TBL6 1-204) with K33Q, K34Q, K38Q, K42Q
As to the kind of experiment: vesicle sedimentation assay. Type of assay: binding. As to conditions: 20 µM protein; 1000 µM vesicles of 10% lipid + 90% PC.

The text below walks through data of article PMC4198483 (Cancer cell, 2014).

Changes are numbered by the printed parent chain.

Regarding PtdIns(4,5)P2, the results for the “% protein bound to vesicles” value at TIPE3 (TNFAIP8L3) [1] and on TIPE3 (TNFAIP8L3) [2] were > 60% and ~ 30%, respectively.

Take PtdIns(3,4,5)P3: at TIPE3 (TNFAIP8L3) [1], the “% protein bound to vesicles” value is on record as > 60%.
